Measurements from paper PMC9732253, “Inhibition of the Phosphatidylinositol-3 Kinase Pathway Using Bimiralisib in Loss-of-Function NOTCH1-Mutant Head and Neck Cancer” (The Oncologist, 2022).
Where two headings read alike, the source gives them in different places.

Columns and labels:
[1] = cited from earlier work
[2] = system: pathway targets in tumor tissue; design: method as in PMID 29660598; conditions: therapeutic doses; cited from earlier work
[3] = Phase II trial, PK analysis: pre-dose and 1 h post-dose blood levels by HPLC; assay type: in vivo, human; conditions: for Cmax: human, serum, 140 mg; for Trough: pre-dose
Procedure: Blood was collected before oral dose administration and 1 hour after oral dose administration on days 1, 8, 22, 43, and 64 after the start of therapy. Bimiralisib levels were determined as previously described using high-performance liquid chromatography[8-11] by Charles River Laboratories (Ashland, Ohio). The pre-dose levels were the trough levels and post-dose levels were the assumed peak serum concentration (Cmax) values. Cmax and trough accumulation ratios were calculated by dividing each patient’s treatment day concentration by their initial available drug concentration—day 1 for Cmax and day 8 for trough. Statistical differences among groups were identified by analysis of variance using Statistica version 13.1 (TIBCO Software Inc., Palo Alto, California); P < .05 was considered statistically significant

[4] = system: mTOR; conditions: cited from earlier work
[5] = system: PI3Kβ; conditions: compared with PI3Kα and mTOR; cited from earlier work
[6] = system: NOTCH1-mutant HNSCC; conditions: one heavily pretreated patient with NOTCH1-mutant HNSCC, thoracic metastases; cited from earlier work

Compound: Nc1cc(C(F)(F)F)c(-c2nc(N3CCOCC3)nc(N3CCOCC3)n2)cn1 [Bimiralisib, 5-(4,6-dimorpholino-1,3,5-triazin-2-yl)-4-(trifluoromethyl)pyridin-2-amine]
- Time of maximum plasma concentration, latest ([1]; after oral administration): ≤ 24 h
- Highest Cmax ([1]; dose of 150 mg, ref 11 (Wicki et al)): 998 ng/mL
- Terminal half-life ([1]; in vivo): 40 h
- Time of maximum plasma concentration after a dose ([1]; most humans, oral): 1 to 2 h
- Change of pathway targets in tumor tissue [2]: marked decreases
- Cmax ([3]; oral, 140-mg dose, current study, read-out: Maximum Cmax value): 970 ng/mL
- Cmax ([3]; po, median, Day 1 (n = 6), 1 hour after 140 mg oral dose, read-out: C max): 574 ng/mL
- Cmax ([3]; po, median, Day 8 (n = 6), 1 hour after oral dose, read-out: C max): 574 ng/mL
- Cmax ([3]; po, median, Day 22 (n = 5), 1 hour after oral dose, read-out: C max): 691 ng/mL
- Cmax ([3]; po, median, Day 43 (n = 4), 1 hour after oral dose, read-out: C max): 526 ng/mL
- Cmax ([3]; po, median, Day 64 (n = 5), 1 hour after oral dose, read-out: C max): 546 ng/mL
- Cmax accumulation ([3]; intermittent dosing regimen): not observed
- Trough ([3]; median, Day 8 (n = 6)): 62 ng/mL
- C max accumulation ratio ([3]; median, Day 8 vs day 1): 0.78
- Trough ([3]; median, Day 22 (n = 5)): 101 ng/mL
- C max accumulation ratio ([3]; median, Day 22 vs day 1): 1.18
- Trough accumulation ratio ([3]; median, Day 22 vs day 8): 1.11
- Trough ([3]; median, Day 43 (n = 4)): 11.6 ng/mL
- C max accumulation ratio ([3]; median, Day 43 vs day 1): 0.82
- Trough accumulation ratio ([3]; median, Day 43 vs day 8): 0.94
- Trough ([3]; median, Day 64 (n = 5)): 139 ng/mL
- C max accumulation ratio ([3]; median, Day 64 vs day 1): 0.94
- Trough accumulation ratio ([3]; median, Day 64 vs day 8): 0.63
- Inhibition of mTOR [4]: potently inhibits
- Potency against PI3Kβ [5]: less potency
- Duration of partial response [6]: 9 months
